The nature of series [1]: Test 1: body and lymphoid organ weight in SRBC immunized mice. It is filed as in vivo, mice (male B6 D2F1). The conditions noted are these: 100 mg/kg/day per os, day -2 through day +2; x ± S.E. As for the experimental part: Test 1: Evaluation of the "in vitro-ex vivo" effect of repeated oral administrations of ST 722 on the primary antibody production (Jerne test) in the spleen of SRBC (Sheep Red Blood Cells) immunized mice.
Male B6 D2F1 mice (C. River) aged 8 weeks (6 animals each group) were utilized.
The substance (ST 722) was administered per os at the dose of 100 mg/kg/day from day -2 through day +2 (immunization at day 0). The animals were immunized by intraperitoneal route with a concentration of 1.0×10^8 cells/mouse in 0.2 ml of sterile saline.
Five days later, spleens to be submitted to teasing process were removed from the animals sacrificed by cervical dislocation. After standardization at 1.0×10^7 cells/ml. the splenocytes (0.1 ml) were mixed with warm agar-Hank's (2 ml) and 10% SRBC in PBS (0.2 ml) and seeded in Petri dishes (samples tested in triplicates) and incubated at 37° C. for 60 min.

The next series relates to yeast-like fungi. Nature of the series: MIC / MFC for yeast-like fungi, all strains. The conditions noted are these: versus susceptible strains; read-out: Mean MIC values. It counts as cell-based, Candida, Cryptococcus, Saccharomyces, Torulopsis. The procedure, abridged:
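Candida, Cryptococcus, Saccharomyces and Torulopsis strains tested by broth microdilution in Yeast Nitrogen Base with 0.15% asparagine and 1.0% glucose, buffered with 0.165 M MOPS; final inoculum about 5.0×10^4 CFU/ml from overnight (Cryptococcus 48-hour) Sabouraud cultures. MFC from spot-transfer of wells without visible growth onto Sabouraud agar.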

The structures appear in SMILES notation.

Broadly, the MIC is the smallest concentration in the dilution series that meets the test's criterion for growth inhibition. Turning to `CCCCCCCCCCCOC(=O)C[C@H](C[N+](C)(C)C)OC(=O)CC(C)C` [ST 722, isovaleryl-L-carnitine undecyl ester chloride], in series [1], the Body weight is 25.12 ± 0.77 g, the Spleen weight stood at 94.33 ± 4.12 mg and the Thymus weight is 59.50 ± 3.62 mg. The MIC with yeast-like fungi was 3.76 µg/mL.

These data come from patent US5525627A, “Esters of acyl carnitines with long-chain aliphatic alcohols and pharmaceutical compositions containing same having antimycotic activity” (Sigma-Tau Industrie Farmaceutiche Riunite S.p.A., priority 1992, dated 1996).
